Measurements published in PMC9253027, “Methyl probes in proteins for determining ligand binding mode in weak protein–ligand complexes” (Scientific Reports, 2022).

Target: T1, EcDsbA (DsbA, oxidized) (Escherichia coli, UniProt P0AEG4)
T1 construct: 21 kDa oxidized EcDsbA
Test: X-ray crystal structure ([…] Å, soaking), intermolecular NOEs/NMR2, KD from HSQC chemical shift perturbation titration
Assay type: binding

T1 sequence (P0AEG4 20-208): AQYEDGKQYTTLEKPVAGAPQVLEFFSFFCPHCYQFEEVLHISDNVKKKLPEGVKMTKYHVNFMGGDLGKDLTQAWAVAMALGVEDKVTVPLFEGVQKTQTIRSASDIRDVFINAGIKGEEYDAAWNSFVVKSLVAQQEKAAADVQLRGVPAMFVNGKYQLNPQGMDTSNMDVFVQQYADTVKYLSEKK

## O=C(O)c1sc(CCCc2ccccc2)nc1-c1ccccc1 [compound 1, phenylthiazole 1]
  Kd: ~900 µM
